According to patent publication EP0061162A2, “Cephalosporin derivatives, pharmaceutical compositions containing the same and production thereof” (KYOTO YAKUHIN KOGYO KABUSHIKI KAISHA, priority 1981, dated 1982):

Test: Acute oral toxicity test in mice
Details: mouse, in vivo, suspension in 1% methylcellulose solution, male mice (ICR, 5-week-old), doses 0.5 g to 5.0 g/kg
Experimental: The acut oral toxicity data for cephalosporin derivatives (I) and acid addition salt of the present invention in mice are shown below.
Animals: Male mice (ICR, 5-week-old), n=3
Method of administration: The cephalosporin derivatives as prepared in the above synthesis examples were administered in the form of suspension in 1% methylcellulose solution to mice orally at doses of 0.5 g to 5.0 g/kg.

CCOC(=O)OC(C)OC(=O)C1=CCS[C@@H]2[C@H](NC(=O)/C(=N\OC)c3csc(N)n3)C(=O)N12 (single isomer, unassigned) [Compound 1, l-(ethoxycarbonyloxy)ethyl 7-[2-(2-aminothiazol-4-yl)-2-methoxyiminoacetamido]-3-cephem-4-carboxylate (syn isomer)]
LD50: > 5000 mg/kg
